In publication PMC9653733, “Characterization of a Potent, Selective, and Safe Inhibitor, Ac15(Az8)2, in Reversing Multidrug Resistance Mediated by Breast Cancer Resistance Protein (BCRP/ABCG2)” (International Journal of Molecular Sciences, 2022):
Where “and” joins values, the source holds several entries; their conditions need not be identical. Equal values may be shown once. Read-outs that look alike come from different tables or passages of the source.

Columns and labels:
S1M180 cells = assay: Cytotoxicity of anticancer drugs in S1M180 (0.1% DMSO); type: cell-based, human
Description: (§1) In total, 6500 cells of S1M180 or MCF7-MX100 were incubated with various doses of topotecan or DOX and modulators. The final volume in each well of 96-well plates was 200 µL. The plates were then incubated for 5 days at 37 °C. The CellTiter 96 AQueous Assay (Promega) was used to measure cell proliferation. According to the manufacturer’s instructions, MTS (2 mg/mL) and PMS (0.92 mg/mL) were mixed in a ratio of 20:1. An aliquot (10 μL) of the freshly prepared MTS/PMS mixture was added into each well, and the plate was incubated for 2 h at 37 °C. Optical absorbance at 490 nm was then recorded with microplate absorbance reader (Bio-Rad). IC50 values were calculated from the dose-response curves of MTS assays (Prism 4.0).

BCRP (S1M180 cells) = biological target: T1, BCRP (S1M180 cells) (Homo sapiens, UniProt Q9UNQ0, R482G); assay: Cell proliferation (MTS) assay: reversal of BCRP-mediated topotecan/DOX resistance in S1M180; type: cell-based
T1 construct: endogenous in cells; host or cells: S1M180 (human colon carcinoma, mitoxantrone-selected)
T1 sequence (Q9UNQ0 1-655 R482G): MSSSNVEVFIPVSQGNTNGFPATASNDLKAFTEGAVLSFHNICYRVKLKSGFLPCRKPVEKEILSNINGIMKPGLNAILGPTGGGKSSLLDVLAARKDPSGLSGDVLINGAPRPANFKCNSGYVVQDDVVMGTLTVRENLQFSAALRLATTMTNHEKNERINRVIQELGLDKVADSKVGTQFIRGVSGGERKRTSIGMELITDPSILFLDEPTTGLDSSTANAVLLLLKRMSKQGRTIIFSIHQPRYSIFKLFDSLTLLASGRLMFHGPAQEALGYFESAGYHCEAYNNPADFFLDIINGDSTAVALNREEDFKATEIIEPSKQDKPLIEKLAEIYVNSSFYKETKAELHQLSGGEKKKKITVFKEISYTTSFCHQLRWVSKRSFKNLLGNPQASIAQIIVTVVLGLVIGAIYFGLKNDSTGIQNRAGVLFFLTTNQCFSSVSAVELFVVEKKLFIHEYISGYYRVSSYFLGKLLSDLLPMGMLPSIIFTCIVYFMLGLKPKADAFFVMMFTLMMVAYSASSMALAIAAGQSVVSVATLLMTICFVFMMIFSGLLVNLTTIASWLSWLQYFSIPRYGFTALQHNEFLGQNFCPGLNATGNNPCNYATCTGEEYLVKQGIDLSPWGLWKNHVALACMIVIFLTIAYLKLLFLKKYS
Description: as §1

P-gp (LCC6MDR cells) = biological target: T2, P-gp (LCC6MDR cells) (Homo sapiens, UniProt P08183); assay: Reversal of P-gp-mediated paclitaxel resistance in LCC6MDR; type: cell-based; conditions: value without asterisk; read-out: EC50 needed for reversing P-gp-mediated paclitaxel resistance, LCC6MDR
T2 construct: expressed in transfected cells; host or cells: LCC6MDR (human breast cancer line)

L929 = assay: Cytotoxicity towards normal mouse fibroblast cells L929; type: cell-based; conditions: value without asterisk
BCRP (MCF7-MX100 cells) = conditions: concentration reducing IC50 of anticancer drug by half; mean ± S.D.; ref [42]; read-out: EC50 needed for reversing BCRP-mediated topotecan resistance, MCF7-MX100; cited from earlier work
S1 cells = assay: Drug accumulation assay in S1; type: cell-based, human; conditions: non-BCRP overexpressing S1 cells; 100 nM or 1000 nM
Description: Figure 2 Effect of Ac15(Az8)2 on intracellular accumulation of BCRP-substrates in S1 and S1M180 cells. Cells were pre-treated with 0.1% DMSO, 100 nM, or 1000 nM Ac15(Az8)2 and then incubated with BCRP substrates. (A) Topotecan accumulation. (B) DOX accumulation. The intracellular level of drug after treatment was normalized to that of S1 cells after incubating with 0.1% DMSO. Student unpaired two-tailed t-test was conducted as indicated (** p < 0.01, *** p < 0.001). (C) To measure DOX efflux, S1M180 cells were pre-incubated with medium containing 20 μM DOX for 1 h at 37 °C. Cells were then washed and further incubated with or without 1 µM of Ac15(Az8)2. At 0, 5, 10, 30, 60, 120, and 180 min, the cells were harvested to measure the intracellular DOX level. (D) To determine intracellular Ac15(Az8)2 concentration, 1 × 10^7 cells were incubated with 1 µM of Ac15(Az8)2 at 37 °C for 2 h. Cells were then washed with ice-cold PBS. […]
Briefly, 1 × 10^6 cells of S1 and S1M180 cells were pre-incubated with 100 nM or 1000 nM Ac15(Az8)2 for 2 h and followed by 50 µM of topotecan or 20 µM of DOX for 1-h incubation. […] The fluorescence level of DOX was determined by a fluorescence microplate reader (BMG Technologies) using excitation and an emission wavelength pair of 460 nm and 610 nm.

T2 sequence (P08183 whole entry): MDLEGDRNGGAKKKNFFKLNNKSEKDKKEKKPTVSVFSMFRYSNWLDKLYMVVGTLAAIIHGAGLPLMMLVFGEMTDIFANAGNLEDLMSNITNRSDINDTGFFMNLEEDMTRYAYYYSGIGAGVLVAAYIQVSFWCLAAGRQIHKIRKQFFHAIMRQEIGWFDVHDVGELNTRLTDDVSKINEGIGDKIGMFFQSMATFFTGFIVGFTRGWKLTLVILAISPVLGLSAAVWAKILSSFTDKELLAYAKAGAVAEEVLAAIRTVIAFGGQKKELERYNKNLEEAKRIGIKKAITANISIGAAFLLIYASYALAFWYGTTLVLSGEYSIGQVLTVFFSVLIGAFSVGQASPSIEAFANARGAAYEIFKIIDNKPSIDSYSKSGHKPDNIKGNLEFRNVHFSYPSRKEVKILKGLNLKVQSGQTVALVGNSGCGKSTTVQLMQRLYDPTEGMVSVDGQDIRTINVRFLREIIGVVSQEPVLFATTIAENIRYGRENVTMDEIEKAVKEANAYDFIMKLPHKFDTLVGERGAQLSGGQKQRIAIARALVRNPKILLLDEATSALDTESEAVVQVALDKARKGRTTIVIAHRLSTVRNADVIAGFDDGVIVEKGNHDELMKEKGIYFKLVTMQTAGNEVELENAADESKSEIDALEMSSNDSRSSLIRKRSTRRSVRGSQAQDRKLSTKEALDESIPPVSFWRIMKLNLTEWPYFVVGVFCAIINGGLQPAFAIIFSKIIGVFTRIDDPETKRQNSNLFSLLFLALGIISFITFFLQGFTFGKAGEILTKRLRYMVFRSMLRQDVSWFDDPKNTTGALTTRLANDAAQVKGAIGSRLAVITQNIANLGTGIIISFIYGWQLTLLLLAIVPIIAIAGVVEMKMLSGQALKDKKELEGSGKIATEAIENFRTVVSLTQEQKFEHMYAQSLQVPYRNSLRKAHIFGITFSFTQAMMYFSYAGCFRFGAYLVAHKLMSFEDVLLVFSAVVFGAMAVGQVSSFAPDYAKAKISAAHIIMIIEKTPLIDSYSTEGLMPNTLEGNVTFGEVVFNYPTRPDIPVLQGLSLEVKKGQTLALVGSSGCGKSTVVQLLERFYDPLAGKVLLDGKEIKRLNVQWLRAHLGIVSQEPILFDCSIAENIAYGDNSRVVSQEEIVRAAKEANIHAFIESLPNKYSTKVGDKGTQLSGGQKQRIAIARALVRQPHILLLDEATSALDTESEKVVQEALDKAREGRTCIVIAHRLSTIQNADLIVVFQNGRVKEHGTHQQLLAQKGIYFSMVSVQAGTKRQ

SMILES: CC[C@@]1(O)C(=O)OCc2c1cc1n(c2=O)Cc2cc3c(CN(C)C)c(O)ccc3nc2-1 [topotecan]
- IC50 (S1M180 cells; Homo sapiens, S1-M1-80, S1M180 + 0.1% DMSO, mean ± S.D., n = 3, read-out: IC50 of topotecan): 12.4 µM
- RF (Relative Fold), topotecan (S1M180 cells; S1M180 + 0.1% DMSO (reference)): 1.0

SMILES: COC(=O)c1cccc(COc2c(-c3ccc(OCCOCCn4cc(CN(Cc5ccccc5)Cc5cn(CCOCCOc6ccc(-c7oc8ccccc8c(=O)c7OCc7cccc(C(=O)OC)c7)cc6)nn5)nn4)cc3)oc3ccccc3c2=O)c1 [Ac15(Az8)2]
- EC50 (BCRP (S1M180 cells); HEK293/R2, MCF7-MX100 and S1M180, summary of Table 2, read-out: EC50 for reversing topotecan and DOX resistance in three BCRP-overexpressed cell lines (range)): 0.003 to 0.072 µM
- EC50 (BCRP (S1M180 cells); concentration reducing IC50 of anticancer drug by half, mean ± S.D., n = 3–4, read-out: EC50 needed for reversing BCRP-mediated DOX resistance, S1M180): 0.056 µM and 0.0561 µM
- EC50 (BCRP (S1M180 cells); concentration reducing IC50 of anticancer drug by half, mean ± S.D., n = 3–4, read-out: EC50 needed for reversing BCRP-mediated topotecan resistance, S1M180): 0.072 ± 0.012 µM
- EC50 (BCRP (S1M180 cells); range over DOX and topotecan resistance of Table 2, read-out: EC50 for reversing resistance in S1M180 (range)): 0.056 to 0.072 µM
- EC50 (P-gp (LCC6MDR cells)): > 3 µM
- IC50 (L929): > 500 µM
- EC50 (BCRP (MCF7-MX100 cells)): 0.003 µM and 0.0033 µM
- Effect on DOX accumulation in S1 (S1 cells): did not affect
- Effect on topotecan accumulation in S1 (S1 cells): did not affect
